IC50 data for 25 molecules are collected here from ChEMBL document CHEMBL4834431, “Design of Dimeric Bile Acid Derivatives as Potent and Selective Human NTCP Inhibitors” (J Med Chem, 2021).

The structures appear in SMILES notation. Bounds are passed on as bounds.

In this test the test system is Hepatitis B virus. Description: Antiviral activity against HBV infected in human HepG2-NTCP cells assessed as reduction in HBeAg secretion incubated for 24 hrs followed replacement with fresh medium and measured at day 5 post infection by ELISA. The format is functional, organism-based.
As a reminder, the IC50 is the concentration needed to halve the response being measured. With `C[C@H](CCC(=O)NCCS(=O)(=O)O)[C@H]1CC[C@H]2[C@@H]3[C@H](O)C[C@@H]4C[C@H](OC(=O)CCCC(=O)O[C@@H]5CC[C@@]6(C)[C@@H](C5)C[C@@H](O)[C@@H]5[C@@H]6CC[C@]6(C)[C@@H]([C@H](C)CCC(=O)NCCS(=O)(=O)O)CC[C@@H]56)CC[C@]4(C)[C@H]3CC[C@]12C`, the IC50 stood at 187 nM.
The figure for `C[C@H](CCC(=O)NCCS(=O)(=O)O)[C@H]1CC[C@H]2[C@@H]3[C@@H](O)C[C@@H]4CC(NC(=O)CC(=O)NC5CC[C@@]6(C)[C@@H](C5)C[C@H](O)[C@@H]5[C@@H]6CC[C@]6(C)[C@@H]([C@H](C)CCC(=O)NCCS(=O)(=O)O)CC[C@@H]56)CC[C@]4(C)[C@H]3CC[C@]12C` (stereo not given in full) is 3570 nM; for `C[C@@H]1CCCOC(=O)CC[C@@H](C)[C@H]2CC[C@H]3[C@@H]4[C@@H](O)C[C@@H]5C[C@@H](CC[C@]5(C)[C@H]4CC[C@]23C)NC(=O)CCCC(=O)N[C@@H]2CC[C@@]3(C)[C@@H](C2)C[C@H](O)[C@@H]2[C@@H]3CC[C@]3(C)[C@@H]1CC[C@@H]23` it is 525 nM; for `C[C@H](CCC(=O)NCCS(=O)(=O)O)[C@H]1CC[C@H]2[C@@H]3[C@@H](O)C[C@@H]4C/C(=C5\CC[C@@]6(C)[C@@H](C5)C[C@H](O)[C@@H]5[C@@H]6CC[C@]6(C)[C@@H]([C@H](C)CCC(=O)NCCS(=O)(=O)O)CC[C@@H]56)CC[C@]4(C)[C@H]3CC[C@]12C` it is greater than 10000 nM.
Under `C[C@@H]1CCC(=O)NCCCNC(=O)CC[C@@H](C)[C@H]2CC[C@H]3[C@@H]4[C@@H](O)C[C@@H]5C[C@@H](CC[C@]5(C)[C@H]4CC[C@]23C)NC(=O)CCCC(=O)N[C@@H]2CC[C@@]3(C)[C@@H](C2)C[C@H](O)[C@@H]2[C@@H]3CC[C@]3(C)[C@@H]1CC[C@@H]23` stands 564 nM.
For the molecule `C[C@H](CCCNC(=O)CC[C@@H](C)[C@H]1CC[C@H]2[C@@H]3[C@@H](O)C[C@@H]4C[C@H](O)CC[C@]4(C)[C@H]3CC[C@]12C)[C@H]1CC[C@H]2[C@@H]3[C@@H](O)C[C@@H]4C[C@H](O)CC[C@]4(C)[C@H]3CC[C@]12C`, the IC50 is greater than 10000 nM.
Take `C[C@H](CCC(=O)O)[C@H]1CC[C@H]2[C@@H]3[C@@H](O)C[C@@H]4C[C@H](OCCCCCO[C@@H]5CC[C@@]6(C)[C@@H](C5)C[C@H](O)[C@@H]5[C@@H]6CC[C@]6(C)[C@@H]([C@H](C)CCC(=O)NCCS(=O)(=O)O)CC[C@@H]56)CC[C@]4(C)[C@H]3CC[C@]12C`: the IC50 amounted to 935 nM.
The figure for `C[C@H](CCC(=O)NCCS(=O)(=O)O)[C@H]1CC[C@H]2[C@@H]3[C@@H](O)C[C@@H]4CC(C5CC[C@@]6(C)[C@@H](C5)C[C@H](O)[C@@H]5[C@@H]6CC[C@]6(C)[C@@H]([C@H](C)CCC(=O)NCCS(=O)(=O)O)CC[C@@H]56)CC[C@]4(C)[C@H]3CC[C@]12C` (stereo not given in full) is greater than 10000 nM.
The figure for `C[C@H](CCC(=O)O[C@@H]1CC[C@@]2(C)[C@@H](C1)C[C@H](O)[C@@H]1[C@@H]2CC[C@]2(C)[C@@H]([C@H](C)CCC(=O)O[C@@H]3CC[C@@]4(C)[C@@H](C3)C[C@H](O)[C@@H]3[C@@H]4CC[C@]4(C)[C@@H]([C@H](C)CCC(=O)NCCS(=O)(=O)O)CC[C@@H]34)CC[C@@H]12)[C@H]1CC[C@H]2[C@@H]3[C@@H](O)C[C@@H]4C[C@H](O)CC[C@]4(C)[C@H]3CC[C@]12C` is 2650 nM; for `C[C@@H]1CCC(=O)NCCCNC(=O)CC[C@@H](C)[C@H]2CC[C@H]3[C@@H]4[C@@H](O)C[C@@H]5CC[C@@H](C[C@]5(C)[C@H]4CC[C@]23C)n2cc(nn2)CO[C@H]2CC[C@H]3C[C@H](O)[C@@H]4[C@H](CC[C@]5(C)[C@@H]1CC[C@@H]45)[C@@]3(C)C2` it is 178 nM; for `C[C@@H]1CCC(=O)NCCCCCNC(=O)CC[C@@H](C)[C@H]2CC[C@H]3[C@@H]4[C@@H](O)C[C@@H]5CC[C@@H](C[C@]5(C)[C@H]4CC[C@]23C)n2cc(nn2)CO[C@H]2CC[C@H]3C[C@H](O)[C@@H]4[C@H](CC[C@]5(C)[C@@H]1CC[C@@H]45)[C@@]3(C)C2` it is 465 nM.
The figure for `C[C@@H]1CCC(=O)NCCNC(=O)CC[C@@H](C)[C@H]2CC[C@H]3[C@@H]4[C@@H](O)C[C@@H]5C[C@H](CC[C@]5(C)[C@H]4CC[C@]23C)NC(=O)CN(C)CC(=O)N[C@@H]2CC[C@@]3(C)[C@@H](C2)C[C@H](O)[C@@H]2[C@@H]3CC[C@]3(C)[C@@H]1CC[C@@H]23` is 1210 nM; for `C[C@@H]1CCC(=O)NCCCCNC(=O)CC[C@@H](C)[C@H]2CC[C@H]3[C@@H]4[C@@H](O)C[C@@H]5CC[C@@H](C[C@]5(C)[C@H]4CC[C@]23C)n2cc(nn2)CO[C@H]2CC[C@H]3C[C@H](O)[C@@H]4[C@H](CC[C@]5(C)[C@@H]1CC[C@@H]45)[C@@]3(C)C2` it is 280 nM.
On to `C[C@H](CCc1cn([C@@H]2CC[C@@]3(C)[C@@H](C2)C[C@H](O)[C@@H]2[C@@H]3CC[C@]3(C)[C@@H]([C@H](C)CCC(=O)O)CC[C@@H]23)nn1)[C@H]1CC[C@H]2[C@@H]3[C@@H](O)C[C@@H]4C[C@H](O)CC[C@]4(C)[C@H]3CC[C@]12C`, for which the half-maximal inhibitory concentration (IC50) is 25 nM.
Take `C[C@H](CCC(=O)NCCS(=O)(=O)O)[C@H]1CC[C@H]2[C@@H]3[C@@H](O)C[C@@H]4C[C@H](OC(=O)CCCCCC(=O)O[C@@H]5CC[C@@]6(C)[C@@H](C5)C[C@H](O)[C@@H]5[C@@H]6CC[C@]6(C)[C@@H]([C@H](C)CCC(=O)NCCS(=O)(=O)O)CC[C@@H]56)CC[C@]4(C)[C@H]3CC[C@]12C`: the IC50 turned out to be 683 nM.
For `C[C@H](CCC(=O)NCCS(=O)(=O)O)[C@H]1CC[C@H]2[C@@H]3[C@@H](O)C[C@@H]4C[C@H](OCC#CC#CCO[C@@H]5CC[C@@]6(C)[C@@H](C5)C[C@H](O)[C@@H]5[C@@H]6CC[C@]6(C)[C@@H]([C@H](C)CCC(=O)NCCS(=O)(=O)O)CC[C@@H]56)CC[C@]4(C)[C@H]3CC[C@]12C`, the IC50 worked out at 1870 nM.
Under `C[C@H](CCC(=O)NCCS(=O)(=O)O)[C@H]1CC[C@H]2[C@@H]3CC[C@@H]4C[C@H](OC(=O)CCCC(=O)O[C@@H]5CC[C@@]6(C)[C@H](CC[C@@H]7[C@@H]6CC[C@]6(C)[C@@H]([C@H](C)CCC(=O)NCCS(=O)(=O)O)CC[C@@H]76)C5)CC[C@]4(C)[C@H]3CC[C@]12C` stands 3240 nM; under `C[C@@H]1CCC(=O)NCCCCCCNC(=O)CC[C@@H](C)[C@H]2CC[C@H]3[C@@H]4[C@@H](O)C[C@@H]5CC[C@@H](C[C@]5(C)[C@H]4CC[C@]23C)n2cc(nn2)CO[C@H]2CC[C@H]3C[C@H](O)[C@@H]4[C@H](CC[C@]5(C)[C@@H]1CC[C@@H]45)[C@@]3(C)C2`, 210 nM; under `C[C@H](CCCOC(=O)CC[C@@H](C)[C@H]1CC[C@H]2[C@@H]3[C@@H](O)C[C@@H]4C[C@H](O)CC[C@]4(C)[C@H]3CC[C@]12C)[C@H]1CC[C@H]2[C@@H]3[C@@H](O)C[C@@H]4C[C@H](O)CC[C@]4(C)[C@H]3CC[C@]12C`, 2700 nM.
Turning to `C[C@H](CCC(=O)NCCS(=O)(=O)O)[C@H]1CC[C@H]2[C@@H]3[C@@H](O)C[C@@H]4CC(O)(C5(O)CC[C@@]6(C)[C@H](C[C@H](O)[C@@H]7[C@@H]6CC[C@]6(C)[C@@H]([C@H](C)CCC(=O)NCCS(=O)(=O)O)CC[C@@H]76)C5)CC[C@]4(C)[C@H]3CC[C@]12C` (stereo not given in full), the IC50 was greater than 10000 nM.
With `C[C@H](CCC(=O)O)[C@H]1CC[C@H]2[C@@H]3[C@@H](O)C[C@@H]4C[C@H](NC(=O)CCCC(=O)N[C@@H]5CC[C@@]6(C)[C@@H](C5)C[C@H](O)[C@@H]5[C@@H]6CC[C@]6(C)[C@@H]([C@H](C)CCC(=O)NCCS(=O)(=O)O)CC[C@@H]56)CC[C@]4(C)[C@H]3CC[C@]12C`, the IC50 was determined as 93 nM.
Under `C[C@H](CCC(=O)NCCS(=O)(=O)O)[C@H]1CC[C@H]2[C@@H]3[C@@H](O)C[C@@H]4CC(NC(=O)CCCC(=O)NC5CC[C@@]6(C)[C@@H](C5)C[C@H](O)[C@@H]5[C@@H]6CC[C@]6(C)[C@@H]([C@H](C)CCC(=O)NCCS(=O)(=O)O)CC[C@@H]56)CC[C@]4(C)[C@H]3CC[C@]12C` (stereo not given in full) stands 41 nM; under `C[C@H](CCC(=O)NCCS(=O)(=O)O)[C@H]1CC[C@H]2[C@@H]3[C@@H](O)C[C@@H]4CC(NCCNC5CC[C@@]6(C)[C@@H](C5)C[C@H](O)[C@@H]5[C@@H]6CC[C@]6(C)[C@@H]([C@H](C)CCC(=O)NCCS(=O)(=O)O)CC[C@@H]56)CC[C@]4(C)[C@H]3CC[C@]12C` (stereo not given in full), 7680 nM.
Under `C[C@H](CCC(=O)O)[C@H]1CC[C@H]2[C@@H]3[C@@H](O)C[C@@H]4CC(NC(=O)CCCC(=O)NC5CC[C@@]6(C)[C@@H](C5)C[C@H](O)[C@@H]5[C@@H]6CC[C@]6(C)[C@@H]([C@H](C)CCC(=O)O)CC[C@@H]56)CC[C@]4(C)[C@H]3CC[C@]12C` (stereo not given in full) stands 3570 nM; under `C[C@@H]1CCC(=O)OCCOC(=O)CC[C@@H](C)[C@H]2CC[C@H]3[C@@H]4[C@@H](O)C[C@@H]5C[C@@H](CC[C@]5(C)[C@H]4CC[C@]23C)NC(=O)CCCC(=O)N[C@@H]2CC[C@@]3(C)[C@@H](C2)C[C@H](O)[C@@H]2[C@@H]3CC[C@]3(C)[C@@H]1CC[C@@H]23`, 185 nM.
